≈ marks a conversion by molar mass, not a printed value. Where two headings read alike, the source gives them in different places.
How the values were obtained:
[1] = Comparative stability assay of classical and thermostable luciferase at 37° C.; type: physicochemical
Method: For performing this assay, a classical luciferase (firefly luciferase; Molecular Probes ATP determination kit A22066) and the thermostable luciferase (Checklite kit, Kikkoman, AAE43251.1) were used according to the manufacturer's instructions. Both types of luciferases were added to rich LB or minimal MOPS-Glucose media pre-heated at 37° C. At various times during incubation, aliquots of the solutions were collected, supplemented with reagents and mixed with 0.8 pmole of ATP for bioluminescence readings. Immediately after mixing, bioluminescence measurements were performed at 37° C. using an InfinitePro200, TECAN plate reader in a total volume of 12 μL on a 384-wells microtiter plate (Greiner Bio-one, 784076).

[2] = test system: E. coli MG1655 reporter cells; type: cell-based, Escherichia coli
Method: The classical luciferase was from Molecular Probes (ATP Determination Kit (A22066)). The thermostable luciferase was from “CheckLite AT100” (kikkoman). The Luciferin-luciferase reagents were prepared following manufacturer instructions. Bacteria from exponentially growing cultures (OD600=0.3) were added to each well (60 μl/well) of a black 96-microtiter plate (Greiner Bio-one, 655076) and 20 μl of the luciferin-luciferase reagent solution was added. The microtiter plate was incubated 5 min at 37° C. for reaction with the luciferase to eliminate traces of extracellular ATP. Then 40 μl of antibiotic solution (3 times concentrated) prepared in the culture medium were added. Bioluminescence of each well was monitored for 4 hours under shaking (218 rpm) and at 28 or 37° C., depending on the experiments (see legends of Figures). The reagent stability in presence or absence of antibiotics was checked in control experiments without bacteria but with 4 pmoles of ATP. Tests were also performed in 384-microtiter plates (Greiner Bio-one, 784076).
Aminoglycosides are bactericidal antibiotics causing translational miscoding with lethal consequences for the cell. Leakage of small molecules following an aminoglycoside shock was previously identified by different methods including radiolabelling. Therefore, the inventors investigated the response of live cells to aminoglycoside stress.

Escherichia coli MG1655 = experiment: Antibiotic MIC determination (serial twofold dilutions, OD600 during 17 hours at 37° C.); type: cell-based; settings: for MIC: Escherichia coli
Method: The Minimal Inhibitory Concentration (MIC) of the antibiotics was determined under the same culture conditions as the tests using the ATP assay kit. […] An exponentially growing culture (OD600=0.3) was added to each well (60 μl/well) of a sterile microtiter plate containing the test concentration of antibiotic (40 μl/well). The volume was completed to 120 μl with medium and OD600 nm measurements were performed using a microtiter plate reader (Infinite 200 PRO, TECAN) during 17 hours at 37° C.
In all the following experiments, the MIC values were measured for each antibiotic with parameters such as temperature, OD600 and equipment identical to those used for the bioluminescence assay.

thermostable luciferase = target: T1, thermostable luciferase (Nipponoluciola cruciata, UniProt P13129, A536K/G484A/G534A/I532L/M501V/N494T/N510T/P452A/P477D/R513K/R519V/S465N/S491H/S509T/T217I/T219I/V239I/V459I/V474L/V478D/V500I); type: biochemical
T1 construct: purchased Kikkoman CheckLite AT100
Method: FIG. 5. […] The luciferase-luciferin reagent was preincubated 40 min at 37° C. in presence of various antibiotics in LB before the addition of 30 nM ATP (in the absence of bacteria).
The classical luciferase was from Molecular Probes (ATP Determination Kit (A22066)). The thermostable luciferase was from “CheckLite AT100” (kikkoman). The Luciferin-luciferase reagents were prepared following manufacturer instructions. Bacteria from exponentially growing cultures (OD600=0.3) were added to each well (60 μl/well) of a black 96-microtiter plate (Greiner Bio-one, 655076) and 20 μl of the luciferin-luciferase reagent solution was added. The microtiter plate was incubated 5 min at 37° C. for reaction with the luciferase to eliminate traces of extracellular ATP. Then 40 μl of antibiotic solution (3 times concentrated) prepared in the culture medium were added. Bioluminescence of each well was monitored for 4 hours under shaking (218 rpm) and at 28 or 37° C., depending on the experiments (see legends of Figures). The reagent stability in presence or absence of antibiotics was checked in control experiments without bacteria but with 4 pmoles of ATP. […]
Bioluminescence was thus measured after preincubation of luciferase-lucifering reagent with the antibiotics at their maximal concentration used in this study in LB before the addition of 30 nM ATP (in the absence of bacteria).

[3] = antibiotic at 6.25 μg/mL, LB, 37° C.
[4] = antibiotic at 12.5 μg/mL, LB, 37° C.
[5] = antibiotic at 25 μg/mL, LB, 37° C.
[6] = antibiotic at 50 μg/mL, LB, 37° C.
[7] = MG1655, read-out: MIC in MOPS glucose 0.4%, MOPS minimal medium glucose 0.4%, 37° C.
[8] = MG1655, LB medium, OD600 0.15 final, 37° C., read-out: MIC in LB
[9] = antibiotic at 100 μg/mL, LB, 37° C.
[10] = antibiotic at 200 μg/mL, LB, 37° C.
[11] = antibiotic at 16 μg/mL, LB, 37° C.
[12] = antibiotic at 32 μg/mL, LB, 37° C.
[13] = MOPS minimal medium (glucose 0.4%), FIG. 11
[14] = LB medium, OD600 0.15 final, 37° C.
[15] = MOPS minimal medium glucose 0.4%, 37° C.

T1 sequence (P13129 other isoform, or with tags, fused parts or gaps with the stated changes): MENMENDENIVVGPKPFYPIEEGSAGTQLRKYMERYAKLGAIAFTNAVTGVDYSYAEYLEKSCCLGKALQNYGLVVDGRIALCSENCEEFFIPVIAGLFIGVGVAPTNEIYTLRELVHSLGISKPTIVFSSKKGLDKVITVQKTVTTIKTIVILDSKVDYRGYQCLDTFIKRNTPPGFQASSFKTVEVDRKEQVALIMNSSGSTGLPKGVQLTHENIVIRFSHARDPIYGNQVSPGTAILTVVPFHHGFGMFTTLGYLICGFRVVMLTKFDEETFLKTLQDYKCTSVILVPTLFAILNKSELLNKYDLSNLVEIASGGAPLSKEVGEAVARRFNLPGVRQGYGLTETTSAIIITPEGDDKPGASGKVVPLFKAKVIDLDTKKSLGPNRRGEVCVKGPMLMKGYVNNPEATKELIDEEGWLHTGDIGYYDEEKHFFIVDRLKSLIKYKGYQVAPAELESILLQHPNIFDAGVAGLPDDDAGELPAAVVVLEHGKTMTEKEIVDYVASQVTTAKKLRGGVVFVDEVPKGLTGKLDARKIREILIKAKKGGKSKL

## classical firefly luciferase: firefly luciferase; Molecular Probes ATP determination kit A22066, not thermostable
[1]; LB medium, after 12 minutes of incubation
  Loss of activity: 70%
[1]; minimal MOPS-G medium, in 30 minutes
  Loss of activity: more than 80%

## NCC[C@H](O)C(=O)N[C@@H]1C[C@H](N)[C@@H](O[C@H]2O[C@H](CN)[C@@H](O)[C@H](O)[C@H]2O)[C@H](O)[C@H]1O[C@H]1O[C@H](CO)[C@@H](O)[C@H](N)[C@H]1O [Amikacin]
[2]; LB medium, 37° C., FIG. 8
  Shape of ATP release trace: bi-phasic
[2]; antibiotic at 3.125 μg/mL, LB, 37° C.
  Lag time before ATP: 42 min
[2]; [3]
  Lag time before ATP: 31.0 min
[2]; [4]
  Lag time before ATP: 21.6 min
[2]; [5]
  Lag time before ATP: 16.0 min
[2]; [6]
  Lag time before ATP: 10.5 min
Escherichia coli MG1655; [7]
  MIC: 1.56 µg/mL (≈ 2.66 µM)
Escherichia coli MG1655; [8]
  MIC: 12.5 µg/mL (≈ 21.3 µM)

## COc1cc(Cc2cnc(N)nc2N)cc(OC)c1OC [Trimethoprim]
Thermostable luciferase
  Concentration above which the drug inhibits the luciferase reaction: above 200 μg/mL
Escherichia coli MG1655; [7]
  MIC: 6.25 µg/mL (≈ 21.5 µM)
Escherichia coli MG1655; [8]
  MIC: 50 µg/mL (≈ 172 µM)

## [H]/N=C(/N)N[C@H]1[C@H](O)[C@@H](O)[C@H](O[C@@H]2O[C@@H](C)[C@](O)(C=O)[C@H]2O[C@@H]2O[C@@H](CO)[C@H](O)[C@@H](O)[C@@H]2NC)[C@@H](N/C(N)=N\[H])[C@@H]1O [Streptomycin]
[2]; LB medium, 37° C., FIG. 8
  Shape of ATP release trace: bi-phasic
[2]; [4]
  Lag time before ATP: 39 min
[2]; [5]
  Lag time before ATP: 21 min
[2]; [6]
  Lag time before ATP: 16 min
[2]; [9]
  Lag time before ATP: 12 min
[2]; [10]
  Lag time before ATP: 10 min
[2]; highest concentrations tested, LB, 37° C.
  Lag before ATP release (shortest, incompressible value): ~10 min
Escherichia coli MG1655; [7]
  MIC: 6.25 µg/mL (≈ 10.7 µM)
Escherichia coli MG1655; [8]
  MIC: 50 µg/mL (≈ 86 µM)

## C=CC1=C(C(=O)O)N2C(=O)[C@@H](NC(=O)/C(=N\OCC(=O)O)c3csc(N)n3)[C@H]2SC1 [Cefixime]
[2]; [4]
  Lag time before ATP: 17.5 min
[2]; [5]
  Lag time before ATP: 16.7 min
[2]; [6]
  Lag time before ATP: 15.2 min
[2]; [9]
  Lag time before ATP: 14.9 min
[2]; [10]
  Lag time before ATP: 14.2 min
Escherichia coli MG1655; [7]
  MIC: 50 µg/mL (≈ 110 µM)
Escherichia coli MG1655; [8]
  MIC: 50 µg/mL (≈ 110 µM)

## CC[C@H]1OC(=O)[C@H](C)[C@@H](O[C@H]2C[C@@](C)(OC)[C@@H](O)[C@H](C)O2)[C@H](C)[C@@H](O[C@@H]2O[C@H](C)C[C@H](N(C)C)[C@H]2O)[C@](C)(O)C[C@@H](C)CN(C)[C@H](C)[C@@H](O)[C@]1(C)O [Azithromycin]
[2]; LB, FIG. 9
  High dose at which ATP release was observed: 2.5 times the MIC
[2]; highest concentration (400 μg/mL), MOPS minimal medium (glucose 0.4%)
  ATP leakage: stimulated a ATP leakage
Escherichia coli MG1655; [7]
  MIC: 125 µg/mL (≈ 167 µM)
Escherichia coli MG1655; [8]
  MIC: 175 µg/mL (≈ 234 µM)

## CCn1cc(C(=O)O)c(=O)c2ccc(C)nc21 [Nalidixic acid]
[2]; [11]
  Lag time before ATP: 127.3 min
[2]; [12]
  Lag time before ATP: 114.1 min
[2]; antibiotic at 64 μg/mL, LB, 37° C.
  Lag time before ATP: 88.9 min
[2]; antibiotic at 128 μg/mL, LB, 37° C.
  Lag time before ATP: 79.1 min
[2]; antibiotic at 258 μg/mL, LB, 37° C.
  Lag time before ATP: 50.8 min
[2]; antibiotic at 516 μg/mL, LB, 37° C.
  Lag time before ATP: 46.4 min
Escherichia coli MG1655; MG1655, read-out: MIC in LB
  MIC: 256 µg/mL (≈ 1100 µM)
Escherichia coli MG1655; MG1655, read-out: MIC in MOPS glucose 0.4%
  MIC: 256 µg/mL (≈ 1100 µM)

## CO[C@@]1(NC(=O)Cc2cccs2)C(=O)N2C(C(=O)O)=C(COC(N)=O)CS[C@@H]21 [Cefoxitin]
[2]; [4]
  Lag time before ATP: 10.9 min
[2]; [5]
  Lag time before ATP: 6.1 min
[2]; [6]
  Lag time before ATP: 4.9 min
[2]; [9]
  Lag time before ATP: 4.9 min
[2]; [10]
  Lag time before ATP: 4.9 min
Escherichia coli MG1655; [7]
  MIC: 100 µg/mL (≈ 234 µM)
Escherichia coli MG1655; [8]
  MIC: 50 µg/mL (≈ 117 µM)

## Polymyxin B
[2]; LB medium, 37° C., FIG. 8
  Shape of ATP release trace: bi-phasic
[2]; LB, FIG. 8
  Dose at which the amplitude of the initial burst was maximal: 4 µg/mL
[2]; [13]
  Shape of ATP release trace: monophasic
[2]; MOPS minimal medium vs LB
  Intensity of ATP release signal in minimal medium compared to rich medium (factor of decrease): 3
[2]; above the concentration of 4 μg/ml, LB
  Lag before ATP release: < 2.4 min
[2]; antibiotic at 2 μg/mL, LB, 37° C.
  Lag time before ATP: 5.3 min
[2]; antibiotic at 4 μg/mL, LB, 37° C.
  Lag time before ATP: 2.4 min
[2]; antibiotic at 8 μg/mL, LB, 37° C.
  Lag time before ATP: < 2.4 min
[2]; [11]
  Lag time before ATP: < 2.4 min
[2]; [12]
  Lag time before ATP: < 2.4 min
Escherichia coli MG1655; [14]
  MIC in LB: 8 µg/mL
Escherichia coli MG1655; [15]
  MIC in MOPS glucose 0.4%: 4 µg/mL

## COc1ccc(C[C@H](N)C(=O)N[C@H]2[C@@H](O)[C@H](n3cnc4c(N(C)C)ncnc43)O[C@@H]2CO)cc1 [Puromycin]
Thermostable luciferase; preincubation with antibiotic in LB, 30 nM ATP, no bacteria, inhibition only at concentration above the MIC
  Effect on the activity of the bioluminescence assay: significant inhibition of bioluminescence
[2]; sub-MIC concentrations, LB, FIG. 9
  ATP leakage: very weak leakage
Escherichia coli MG1655; [7]
  MIC: 871 µg/mL (≈ 1850 µM)
Escherichia coli MG1655; [8]
  MIC: 435 µg/mL (≈ 923 µM)
Escherichia coli MG1655; [14]
  MIC in LB: 377 µg/mL (≈ 800 µM)

## Gentamicin
[2]; LB medium, 37° C., FIG. 8
  Shape of ATP release trace: bi-phasic
[2]; [13]
  Shape of ATP release trace: monophasic
[2]; antibiotic at 0.19 μg/mL, LB, 37° C.
  Lag time before ATP: 136.1 min
[2]; antibiotic at 0.39 μg/mL, LB, 37° C.
  Lag time before ATP: 136.3 min
[2]; antibiotic at 0.78 μg/mL, LB, 37° C.
  Lag time before ATP: 67.1 min
[2]; antibiotic at 1.56 μg/mL, LB, 37° C.
  Lag time before ATP: 54.0 min
[2]; antibiotic at 3.12 μg/mL, LB, 37° C.
  Lag time before ATP: 30.2 min
[2]; [3]
  Lag time before ATP: 16.2 min
[2]; [4]
  Lag time before ATP: 12.9 min
Escherichia coli MG1655; [14]
  MIC in LB: 5.7 µg/mL
Escherichia coli MG1655; [15]
  MIC in MOPS glucose 0.4%: 0.6 µg/mL

Source: US12595504B2, “Methods for screening compounds for bactericidal activity and for determining the sensitivity of bacterial samples” (priority 2020, dated 2026)
